Entries after “also recorded” stand apart in the source; their conditions may differ. Read-outs that look alike come from different tables or passages of the source.
Key:
[1] = system: B. subtilis ATCC-6633; assay: Antibacterial activity, MIC by double-microdilution; assay type: cell-based
Method: (§1) Comparative antibacterial activities were determined in two representative strains of Gram-negative (E. coli R477-100) and Gram-positive (B. subtilis ATCC-6633) bacteria, by measuring the MIC values using the double-microdilution method according to the National Committee for Clinical Laboratory Standards (NCCLS) (NCCLS. National Committee for Clinical Laboratory Standards, Performance standards for antimicrobial susceptibility testing. Fifth information supplement: Approved Standard M100-S5; Villanova, Pa.: NCCLS, 1994.).
(§2) In all biological tests, all AGs were in their sulfate salt forms, and the concentrations refer to the free amine form of each AG. The eukaryotic and prokaryotic half-maximal-inhibition values (IC50^Euk and IC50^Pro) were quantified in coupled transcription/translation assays by using active luciferase detection as previously described. Minimal inhibitory concentration (MIC) values were determined by using the double-microdilution method.

[2] = system: cystic fibrosis G542X nonsense mutation; assay: Cell-free nonsense mutation suppression dose-response assay, firefly/renilla; assay type: biochemical, rabbit; conditions: 0-50 μM, FIGS. 4-7
Method: (§3) The plasmids were transcribed in vitro and translated using rabbit reticulocytes (TNT mix) and then tested for the expression levels of the firefly and renilla luciferases.
(§4) WT plasmids expressed both firefly and renilla luciferases while mutant plasmids expressed only the renilla luciferase due to the stop codon found in the inserted sequence. The readthrough assays were conducted for the tested compounds and the controls by adding the compounds to the in vitro transcription/translation reaction mixture. In case the compounds exerted suppression of the premature nonsense/stop codon mutation, the firefly luciferase was expressed and a fold-change in its expression was observed.
Readthrough activity of Cystic Fibrosis (CF) mutation G542X was tested using the compounds presented in Table 1, and the mutation suppression was calculated based on firefly/renilla expression ratio values, and normalized with respect to the expression level of the WT and the control sample (no tested compound).

[3] = system: Rett syndrome R168X, R270X and R294X nonsense mutations; assay: Cell-free nonsense mutation suppression assay, firefly/renilla; assay type: biochemical, rabbit; conditions: 5 μM, FIGS. 8A-C
Method: as §3, §4
FIGS. 8A-C present the results of Rett syndrome R168X (FIG. 8A), R270X (FIG. 8B) and R294X (FIG. 8C) nonsense mutations suppression cell-free assays conducted for six exemplary compounds according to embodiments of the present invention, NB144, NB145, NB146, NB150, NB151 and NB152, at a concentration of 5 μM. As shown therein, when compared with the control (non-treated cell extracts), the wild type cell extracts are unaffected (approx. 100%); however, in all three Rett syndrome mutation models there is a significant impact of the different treatments on the readthrough activity (>>>100%).

[4] = system: E. coli R477-100; assay: Antibacterial activity, MIC by double-microdilution; assay type: cell-based; conditions: for MIC: Escherichia coli, R477100, read-out: Antibacterial Activity MIC E. Coli R 477/100
Method: as §1, §2

[5] = system: nonsense constructs R3X and R245X (USH1), Q70X (HS), G542X (CF); assay: Dual luciferase in vitro readthrough assay, p2Luc plasmids, TNT Reticulocyte Lysate; assay type: biochemical; conditions: for in vitro stop codon suppression (readthrough) activity compared with Compound 1: R3X nonsense mutation construct (USH1), FIG. 10
Excerpt: DNA fragments derived from PCDH15, CFTR, and IDUA cDNAs, including the tested nonsense mutation or the corresponding wild type (wt) codon, and four to six upstream and downstream flanking codons were created by annealing the following pairs of complementary oligonucleotides:
Fragments were inserted in frame into the polylinker of the p2Luc plasmid between either BamHI and SacI (p.R3X and p.R245X) or SalI and SacI (all the rest) restriction sites. For the in vitro readthrough assays, the obtained plasmids, with addition of the tested aminoglycosides were transcribed and translated using the TNT Reticulocyte Lysate Quick Coupled Transcription/Translation System. Luciferase activity was determined after 90 minutes of incubation at 30° C., using the Dual Luciferase Reporter Assay System (Promega™).
Activity was tested using a collection of dual-luciferase reporter plasmids, containing different sequence contests around premature stop codons derived from the PCDH15, CFTR, and IDUA genes that underline USH1, CF, and MPS I-H, respectively. The exemplified nonsense reporters were R3X and R245X for USH1, G542X for CF, and Q70X for MPS I-H.

[6] = system: prokaryotic ribosome (E. coli S30 extract); assay: Prokaryotic in vitro translation inhibition, coupled transcription/translation, E. coli S30 extract, pBESTluc; assay type: biochemical; conditions: from IC50^Pro and MIC values of Tables 4 and 6
Method: (§5) Prokaryotic in vitro translation inhibition by the different aminoglycosides was quantified in coupled transcription/translation assays by using E. coli S30 extract for circular DNA with the pBESTluc plasmid (Promega), according to the manufacturer's protocol. Translation reactions (25 μL) that contained variable concentrations of the tested aminoglycoside were incubated at 37° C. for 60 minutes, cooled on ice for 5 minutes, and diluted with a dilution reagent (tris-phosphate buffer (25 mM, pH 7.8), DTT (2 mM), 1,2-diaminocyclohexanetetraacetate (2 mM), glycerol (10%), Triton X-100 (1%) and BSA (1 mg mL-1)) into 96-well plates. Eukaryotic in vitro translation inhibition was quantified by use of TNT® T7 Quick Coupled Transcription/Translation System with a luciferase T7 control DNA plasmid (Promega), according to the manufacturer protocol. Translation reactions (25 μL) containing variable concentrations of the tested aminoglycoside were incubated at 30° C. for 60 minutes, cooled on ice for 5 minutes, diluted with the dilution reagent and transferred into 96-well plates. In both prokaryotic and eukaryotic systems the luminescence was measured immediately after the addition of the Luciferase Assay Reagent (50 μL; Promega), and the light emission was recorded with a FLx800 Fluorescence Microplate Reader (Biotek). The half-maximal inhibition concentration (IC50) values were obtained from fitting concentration-response curves to the data of at least two independent experiments by using Grafit 5 software.
as §2

[7] = system: premature termination codon (PTC); assay: Comparative in-vitro PTC suppression activity assays (Example 6); assay type: biochemical
[8] = system: eukaryotic cytoplasmic ribosome; assay: Eukaryotic in vitro translation inhibition, TNT T7 Quick Coupled Transcription/Translation System, luciferase; assay type: biochemical; conditions: NB156 vs NB74, NB157 vs NB124
Method: as §5, with “Translation reactions (25 μL) containing variable concentrations of the tested aminoglycoside were incubated at 30° C. for 60 minutes, cooled on ice for 5 minutes, diluted with the dilution reagent and transferred into 96-well plates.” left out, “The half-maximal inhibition concentration (IC50) values were obtained from fitting concentration-response curves to the data of at least two independent experiments by using Grafit 5 software.” left out
In all biological tests, all AGs were in their sulfate salt forms, and the concentrations refer to the free amine form of each AG. […] Minimal inhibitory concentration (MIC) values were determined by using the double-microdilution method.

[9] = Bacillus subtilis, ATCC6633, Table 4, read-out: Antibacterial Activity MIC B. Subtilis ATCC6633
[10] = Bacillus subtilis, ATCC6633, Table 6, read-out: Antibacterial activity MIC B. subtilis ATCC6633
[11] = all mutations tested: R3X, R245X, Q70X, G542X, FIGS. 11A-D

## CC(O)C1O[C@H](O[C@@H]2C(N)C[C@@H](N)C(O)C2O[C@@H]2O[C@H]([C@H](C)N)C(O)C2O)C(N)C(O)[C@@H]1O (single isomer, unassigned) [NB124, reference compound]
[1]; [9]
  MIC: 156 µM

## CC(C)CN[C@@H]1CC(N)[C@@H](O[C@H]2OC([C@@H](C)O)[C@@H](O)C(O)C2N)C(O)C1O (stereo in doubt) [NB144]
[2]
  G542X mutation suppression (readthrough) activity, dose-response: notable dose-dependent readthrough activity

## C[C@@H](O)C1O[C@H](O[C@@H]2C(N)C[C@@H](NCc3ccccc3)C(O)C2O)C(N)C(O)[C@@H]1O (stereo in doubt) [NB145]
[2]
  G542X mutation suppression (readthrough) activity, dose-response: notable dose-dependent readthrough activity

## CCCN[C@@H]1CC(N)[C@@H](O[C@H]2OC([C@@H](C)O)[C@@H](O)C(O)C2N)C(O)C1O (stereo in doubt) [NB146]
[2]
  G542X mutation suppression (readthrough) activity, dose-response: clearly dose-dependent for all three compounds, and particularly for NB146; also recorded: notable dose-dependent readthrough activity
[3]
  readthrough activity compared within the series: better activity compared to NB144 and NB145

## C[C@@H](O)C1O[C@H](O[C@@H]2C(N)C[C@@H](NC(=N)N)C(O)[C@H]2O)C(N)C(O)[C@@H]1O (stereo in doubt) [NB150]
[2]
  G542X mutation suppression (readthrough) activity, dose-response: notable dose-dependent readthrough activity

## C[C@@H](O)C1O[C@H](O[C@@H]2C(N)C[C@@H](N)C(O)C2O[C@@H]2O[C@H](CNC(=N)N)C(O)C2O)C(N)C(O)[C@@H]1O (stereo in doubt) [NB151]
[2]
  G542X mutation suppression (readthrough) activity, dose-response: notable dose-dependent readthrough activity

## C[C@@H](O)C1O[C@H](O[C@@H]2C(N)C[C@@H](NC(=O)C(O)CCN)C(O)C2O[C@@H]2O[C@H](CNC(=N)N)C(O)C2O)C(N)C(O)[C@@H]1O (stereo in doubt) [NB152]
[2]
  G542X mutation suppression (readthrough) activity, dose-response: notable dose-dependent readthrough activity
[3]
  readthrough activity compared within the series: higher activity compared to NB150 and NB151

## NC[C@H]1O[C@@H](OC2C(O)[C@H](N)CC(N)[C@H]2O[C@H]2OC(CO)[C@@H](O)C(O)C2N)C(O)C1O (stereo partly drawn) [NB30, reference compound]
[1]; [10]
  MIC: 100 µg/mL
[4]
  MIC: 790 µg/mL

## C[C@H](N)[C@H]1O[C@@H](OC2C(O)[C@H](N)CC(N)[C@H]2O[C@H]2OC(CO)[C@@H](O)C(O)C2N)C(O)C1O (stereo partly drawn) [NB118, reference compound]
[1]; [10]
  MIC: 83 µg/mL
[4]
  MIC: 2660 µg/mL

## N[C@H]1[C@@H](O[C@H]2[C@H](O)[C@@H](O)[C@H](N)C[C@@H]2N)O[C@H]([C@H](O)CO)[C@@H](O)[C@@H]1O [NB153, (2R, 3S, 4R, 5R, 6S)-5-amino-6-(((1R, 2R, 3S, 4R, 6S)-4,6-diamino-2,3-dihydroxycyclohexyl)oxy)-2-((R)-1,2-dihydroxyethyl)tetrahydro-2H-pyran-3,4-diol]
[1]; [9]
  MIC: 311 µM
[4]
  MIC: > 311 µM
[5]
  in vitro stop codon suppression (readthrough) activity compared with Compound 1: dramatically increases its in vitro readthrough activity

## N[C@H]1[C@@H](O[C@H]2[C@H](O)[C@@H](O)[C@H](N)C[C@@H]2N)OC(CO)=C[C@@H]1O [NB154, (1S,2R,3R,4S,6R)-4,6-diamino-3-(((2S,3R,4S)-3-amino-4-hydroxy-6-(hydroxymethyl)-3,4-dihydro-2H-pyran-2-yl)oxy)cyclohexane-1,2-diol]
[6]
  prokaryotic ribosome/protein synthesis inhibition and subsequent antibacterial activity compared with structurally related compound: significantly lower than that of the corresponding paromamine, NB30, and NB118
[1]; [10]
  MIC: > 384 µg/mL
[4]
  MIC: > 384 µg/mL
[7]
  in-vitro PTC suppression activity compared with structurally related compound: more or less similar activity as that of NB82
[7]; preliminary comparative in-vitro PTC suppression assays
  readthrough activity, fold higher than paromamine: ~3.5 fold

## N[C@H]1[C@@H](O[C@H]2[C@H](O)[C@@H](O)[C@H](N)C[C@@H]2N)O[C@H]([C@@H](O)CO)[C@@H](O)[C@@H]1O [NB155, (2R, 3S, 4R, 5R, 6S)-5-amino-6-(((1R, 2R, 3S, 4R, 6S)-4,6-diamino-2,3-dihydroxycyclohexyl)oxy)-2-((S)-1,2-dihydroxyethyl)tetrahydro-2H-pyran-3,4-diol]
[1]; [9]
  MIC: > 375 µM
[4]
  MIC: > 375 µM
[5]
  in vitro stop codon suppression (readthrough) activity compared with Compound 1: somewhat higher activity of NB155 to that of Compound 1

## C[C@H](N)[C@H]1O[C@@H](O[C@@H]2[C@@H](O)[C@H](N)C[C@H](N)[C@H]2O[C@H]2O[C@H]([C@H](O)CO)[C@@H](O)[C@H](O)[C@H]2N)[C@@H](O)[C@H]1O [NB157, (2R, 3S, 4R, 5R, 6S)-5-amino-6-(((1R, 2R, 3S, 4R, 6S)-4,6-diamino-2-(((2S, 3S, 4R, 5R)-5-((S)-1-aminoethyl)-3,4-dihydroxytetrahydrofuran-2-yl)oxy)-3-hydroxycyclohexyl)oxy)-2-((R)-1,2-dihydroxyethyl)tetrahydro-2H-pyran-3,4-diol]
[6]
  prokaryotic ribosome/protein synthesis inhibition and subsequent antibacterial activity compared with structurally related compound: very similar to those of their structurally related Compounds NB74 and NB124
[8]
  fold more specific to the eukaryotic ribosome than structurally related compound: 1.25 fold
[1]; [9]
  MIC: 64 µM
[4]
  MIC: > 257 µM
[5]; [11]
  readthrough activity compared with gentamicin: significantly better than that of the clinical drug gentamicin
  readthrough activity compared with structurally related compound: better than its structurally related NB124

## NC[C@H]1O[C@@H](O[C@@H]2C(O)[C@H](N)CC(N)[C@H]2O[C@H]2OC(CO)=CC(O)[C@@H]2N)C(O)[C@H]1O (stereo partly drawn) [NB158]
[6]
  prokaryotic ribosome/protein synthesis inhibition and subsequent antibacterial activity compared with structurally related compound: significantly lower than that of the corresponding paromamine, NB30, and NB118
[1]; [10]
  MIC: 192 µg/mL

## C[C@H](N)[C@H]1O[C@@H](O[C@@H]2C(O)[C@H](N)CC(N)[C@H]2O[C@H]2OC(CO)=CC(O)[C@@H]2N)C(O)[C@H]1O (stereo partly drawn) [NB159]
[6]
  prokaryotic ribosome/protein synthesis inhibition and subsequent antibacterial activity compared with structurally related compound: significantly lower than that of the corresponding paromamine, NB30, and NB118
[1]; [10]
  MIC: 192 µg/mL

## gentamicin [reference compound]
[1]; Table 4, read-out: Antibacterial Activity MIC B. Subtilis ATCC6633
  MIC: <0.75 µM
[4]; Table 4
  Antibacterial Activity MIC E. Coli R 477/100: 6 µM
